Reference: US20180319810A1, “SUBSTITUTED BRIDGED UREA ANALOGS AS SIRTUIN MODULATORS” (GlaxoSmithKline Intellectual Property (No.2) Limited, priority 2014, published 2018)

Target: T1, SIRT1 (Homo sapiens, UniProt Q96EB6)
T1 sequence (Q96EB6 1-747): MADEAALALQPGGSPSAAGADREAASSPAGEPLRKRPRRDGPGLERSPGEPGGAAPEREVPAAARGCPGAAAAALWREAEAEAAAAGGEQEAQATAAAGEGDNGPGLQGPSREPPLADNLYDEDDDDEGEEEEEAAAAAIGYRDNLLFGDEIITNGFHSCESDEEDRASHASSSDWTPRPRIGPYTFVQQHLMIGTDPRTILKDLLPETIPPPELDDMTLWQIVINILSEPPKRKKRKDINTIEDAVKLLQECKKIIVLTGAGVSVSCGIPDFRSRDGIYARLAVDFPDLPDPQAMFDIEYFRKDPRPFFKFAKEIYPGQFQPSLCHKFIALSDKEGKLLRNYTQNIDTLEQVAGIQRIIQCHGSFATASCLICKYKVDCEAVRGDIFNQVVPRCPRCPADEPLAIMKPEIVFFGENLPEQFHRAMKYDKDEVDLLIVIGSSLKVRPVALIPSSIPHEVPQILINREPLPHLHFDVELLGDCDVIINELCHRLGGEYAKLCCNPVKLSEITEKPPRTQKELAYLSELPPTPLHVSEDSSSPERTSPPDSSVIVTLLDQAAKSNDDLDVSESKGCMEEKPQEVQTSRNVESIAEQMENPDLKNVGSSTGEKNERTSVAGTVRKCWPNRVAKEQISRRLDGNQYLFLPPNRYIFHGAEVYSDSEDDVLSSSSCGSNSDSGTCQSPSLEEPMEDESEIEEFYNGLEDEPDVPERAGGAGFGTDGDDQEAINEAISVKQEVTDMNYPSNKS
Test: Trp mass spectrometry assay of SIRT1 activation
Assay type: biochemical
Details: Trp peptide Ac-R-H-K-K(Ac)-W-NH2 0.5 μM, 120 μM βNAD+, 10 nM SIRT1, 25 min, 25° C.

Row | SMILES | TRP Activity (EC1.5, concentration of compound required to increase SIRT1 activity by 50% over control) | TRP MAX RESP (percent maximum fold activation relative to control)
1 | O=C(Nc1ccc(OC[C@@H](O)CO)cn1)N1c2nc(-c3cccc(C(F)(F)F)c3)ncc2N2CC[C@H]1C2 [Example 42, (8S)—N-(5-((S)-2,3-dihydroxypropoxy)pyridin-2-yl)-2-(3-(trifluoromethyl)phenyl)-7,8-dihydro-5,8-methanopyrimido[4,5-b][1,4]diazepine-9(6H)-carboxamide] | B (EC1.5 1-25 μM) | A (Fold activation ≥150%)
2 | O=C(Nc1ncc(OC[C@@H](O)CO)cn1)N1c2nc(-c3cccc(C(F)(F)F)c3)ncc2N2CC[C@H]1C2 [Example 43, (8S)—N-(5-((S)-2,3-dihydroxypropoxy)pyrimidin-2-yl)-2-(3-(trifluoromethyl)phenyl)-7,8-dihydro-5,8-methanopyrimido[4,5-b][1,4]diazepine-9(6H)-carboxamide] | B (EC1.5 1-25 μM) | A (Fold activation ≥150%)
3 | O=C(Nc1cnnc(OC[C@H](O)CO)c1)N1c2nc(-c3cccc(C(F)(F)F)c3)ncc2N2CC[C@H]1C2 [Example 44, (8S)—N-(6-((R)-2,3-dihydroxypropoxy)pyridazin-4-yl)-2-(3-(trifluoromethyl)phenyl)-7,8-dihydro-5,8-methanopyrimido[4,5-b][1,4]diazepine-9(6H)-carboxamide] | B (EC1.5 1-25 μM) | A (Fold activation ≥150%)
4 | Cc1nc(-c2cccc(C(F)(F)F)c2)nc2c1N1CC[C@@H](C1)N2C(=O)Nc1cncc(OC[C@H](O)CO)c1 [Example 45, (8S)—N-(5-((R)-2,3-dihydroxypropoxy)pyridin-3-yl)-4-methyl-2-(3-(trifluoromethyl)phenyl)-7,8-dihydro-5,8-methanopyrimido[4,5-b][1,4]diazepine-9(6H)-carboxamide] | A (EC1.5<1 μM) | A (Fold activation ≥150%)
5 | Cc1nc(-c2cccc(C(F)(F)F)c2)nc2c1N1CC[C@@H](C1)N2C(=O)Nc1cncc(OC[C@@H](O)CO)c1 [Example 46, (8S)—N-(5-((S)-2,3-dihydroxypropoxy)pyridin-3-yl)-4-methyl-2-(3-(trifluoromethyl)phenyl)-7,8-dihydro-5,8-methanopyrimido[4,5-b][1,4]diazepine-9(6H)-carboxamide] | B (EC1.5 1-25 μM) | A (Fold activation ≥150%)
6 | Cc1nc(-c2cccc(C(F)(F)F)c2)nc2c1N1CC[C@@H](C1)N2C(=O)Nc1nccc(OC[C@@H](O)CO)n1 [Example 47, (8S)—N-(4-((S)-2,3-dihydroxypropoxy)pyrimidin-2-yl)-4-methyl-2-(3-(trifluoromethyl)phenyl)-7,8-dihydro-5,8-methanopyrimido[4,5-b][1,4]diazepine-9(6H)-carboxamide] | B (EC1.5 1-25 μM) | A (Fold activation ≥150%)
7 | Cc1nc(-c2cccc(C(F)(F)F)c2)nc2c1N1CC[C@@H](C1)N2C(=O)Nc1ccc(OC[C@H](O)CO)cn1 [Example 48, (8S)—N-(5-((R)-2,3-dihydroxypropoxy)pyridin-2-yl)-4-methyl-2-(3-(trifluoromethyl)phenyl)-7,8-dihydro-5,8-methanopyrimido[4,5-b][1,4]diazepine-9(6H)-carboxamide] | B (EC1.5 1-25 μM) | A (Fold activation ≥150%)
8 | O=C(Nc1cnc(OC[C@H](O)CO)nc1)N1c2nc(-c3cccc(C(F)(F)F)c3)ncc2N2CC[C@H]1C2 [Example 49, (8S)—N-(2-((R)-2,3-dihydroxypropoxy)pyrimidin-5-yl)-2-(3-(trifluoromethyl)phenyl)-7,8-dihydro-5,8-methanopyrimido[4,5-b][1,4]diazepine-9(6H)-carboxamide] | B (EC1.5 1-25 μM) | A (Fold activation ≥150%)
9 | O=C(Nc1cncc(OC[C@@H](O)CO)n1)N1c2nc(-c3cccc(C(F)(F)F)c3)ncc2N2CC[C@H]1C2 [Example 50, (8S)—N-(6-((S)-2,3-dihydroxypropoxy)pyrazin-2-yl)-2-(3-(trifluoromethyl)phenyl)-7,8-dihydro-5,8-methanopyrimido[4,5-b][1,4]diazepine-9(6H)-carboxamide] | B (EC1.5 1-25 μM) | A (Fold activation ≥150%)
10 | O=C(Nc1nccc(OC[C@@H](O)CO)n1)N1c2nc(-c3cccc(C(F)(F)F)c3)ncc2N2CC[C@H]1C2 [Example 51, (8S)—N-(4-((S)-2,3-dihydroxypropoxy)pyrimidin-2-yl)-2-(3-(trifluoromethyl)phenyl)-7,8-dihydro-5,8-methanopyrimido[4,5-b][1,4]diazepine-9(6H)-carboxamide] | B (EC1.5 1-25 μM) | A (Fold activation ≥150%)
11 | O=C(NC1CCCC1)N1c2nc(-c3cccc(C(F)(F)F)c3)ncc2N2CC[C@H]1C2 [Example 52, (8S)—N-cyclopentyl-2-(3-(trifluoromethyl)phenyl)-7,8-dihydro-5,8-methanopyrimido[4,5-b][1,4]diazepine-9(6H)-carboxamide] | B (EC1.5 1-25 μM) | A (Fold activation ≥150%)
12 | O=C(Nc1cnc(OC[C@@H](O)CO)nc1)N1c2nc(-c3cccc(C(F)(F)F)c3)ncc2N2CC[C@H]1C2 [Example 53, (8S)—N-(2-((S)-2,3-dihydroxypropoxy)pyrimidin-5-yl)-2-(3-(trifluoromethyl)phenyl)-7,8-dihydro-5,8-methanopyrimido[4,5-b][1,4]diazepine-9(6H)-carboxamide] | B (EC1.5 1-25 μM) | A (Fold activation ≥150%)
13 | O=C(Nc1cnnc(OC[C@@H](O)CO)c1)N1c2nc(-c3cccc(C(F)(F)F)c3)ncc2N2CC[C@H]1C2 [Example 54, (8S)—N-(6-((S)-2,3-dihydroxypropoxy)pyridazin-4-yl)-2-(3-(trifluoromethyl)phenyl)-7,8-dihydro-5,8-methanopyrimido[4,5-b][1,4]diazepine-9(6H)-carboxamide] | B (EC1.5 1-25 μM) | A (Fold activation ≥150%)
14 | Cc1nc(-c2cccc(C(F)(F)F)c2)nc2c1N1CC[C@@H](C1)N2C(=O)Nc1cnc(OC[C@H](O)CO)nc1 [Example 55, (8S)—N-(2-((R)-2,3-dihydroxypropoxy)pyrimidin-5-yl)-4-methyl-2-(3-(trifluoromethyl)phenyl)-7,8-dihydro-5,8-methanopyrimido[4,5-b][1,4]diazepine-9(6H)-carboxamide] | B (EC1.5 1-25 μM) | A (Fold activation ≥150%)
15 | Cc1nc(-c2cccc(C(F)(F)F)c2)nc2c1N1CC[C@@H](C1)N2C(=O)Nc1nccc(OC[C@H](O)CO)n1 [Example 56, (8S)—N-(4-((R)-2,3-dihydroxypropoxy)pyrimidin-2-yl)-4-methyl-2-(3-(trifluoromethyl)phenyl)-7,8-dihydro-5,8-methanopyrimido[4,5-b][1,4]diazepine-9(6H)-carboxamide] | B (EC1.5 1-25 μM) | A (Fold activation ≥150%)
16 | Cc1nc(-c2cccc(C(F)(F)F)c2)nc2c1N1CC[C@@H](C1)N2C(=O)Nc1ccnc(OC[C@@H](O)CO)c1 [Example 57, (8S)—N-(2-((S)-2,3-dihydroxypropoxy)pyridin-4-yl)-4-methyl-2-(3-(trifluoromethyl)phenyl)-7,8-dihydro-5,8-methanopyrimido[4,5-b][1,4]diazepine-9(6H)-carboxamide] | B (EC1.5 1-25 μM) | A (Fold activation ≥150%)
